Tested on: ERK phosphorylation associated with APP based cell signaling
Assay: ERK phosphorylation, Western blot, B103 cells co-transfected with APP
Source text: This effect is not seen with cyclic peptide-2 or cyclic peptide-3. […] Cyclic peptide-1 is APP specific
ERK phosphorylation is associated with cell signaling. […] This assay was based on a western blot analysis.

With C-P-H-F-C [cyclic peptide-2] the ERK phosphorylation (Western blot, APP cells (B103 co-transfected with APP), cyclic peptide-1 at 21 uM) was “not seen” and the “modulate ERK phosphorylation and/or switch APP processing from aberrant to normal” value (cyclized loop peptides prepared and tested) was “shown to modulate ERK phosphorylation and/or to switch APP processing from aberrant to normal”.

— patent publication US9534016B2, “Netrin loop peptide mimetics and uses thereof” (Buck Institute for Research on Aging, priority 2011, dated 2017)
